Assay results taken from paper PMC8821706, “Design and synthesis of novel nitrothiazolacetamide conjugated to different thioquinazolinone derivatives as anti-urease agents” (Scientific Reports, 2022).
≈ marks a conversion by molar mass, not a printed value. Like-named read-outs stand apart in the source and are kept apart here.

Key:
[1] = target: T1, urease (Canavalia ensiformis, UniProt P07374); test: biochemical; assay type: biochemical, jack bean; settings: for improvement in potency compared to thiourea: ratio of urease IC50 versus thiourea (positive control)
T1 sequence (P07374 whole entry, looked up): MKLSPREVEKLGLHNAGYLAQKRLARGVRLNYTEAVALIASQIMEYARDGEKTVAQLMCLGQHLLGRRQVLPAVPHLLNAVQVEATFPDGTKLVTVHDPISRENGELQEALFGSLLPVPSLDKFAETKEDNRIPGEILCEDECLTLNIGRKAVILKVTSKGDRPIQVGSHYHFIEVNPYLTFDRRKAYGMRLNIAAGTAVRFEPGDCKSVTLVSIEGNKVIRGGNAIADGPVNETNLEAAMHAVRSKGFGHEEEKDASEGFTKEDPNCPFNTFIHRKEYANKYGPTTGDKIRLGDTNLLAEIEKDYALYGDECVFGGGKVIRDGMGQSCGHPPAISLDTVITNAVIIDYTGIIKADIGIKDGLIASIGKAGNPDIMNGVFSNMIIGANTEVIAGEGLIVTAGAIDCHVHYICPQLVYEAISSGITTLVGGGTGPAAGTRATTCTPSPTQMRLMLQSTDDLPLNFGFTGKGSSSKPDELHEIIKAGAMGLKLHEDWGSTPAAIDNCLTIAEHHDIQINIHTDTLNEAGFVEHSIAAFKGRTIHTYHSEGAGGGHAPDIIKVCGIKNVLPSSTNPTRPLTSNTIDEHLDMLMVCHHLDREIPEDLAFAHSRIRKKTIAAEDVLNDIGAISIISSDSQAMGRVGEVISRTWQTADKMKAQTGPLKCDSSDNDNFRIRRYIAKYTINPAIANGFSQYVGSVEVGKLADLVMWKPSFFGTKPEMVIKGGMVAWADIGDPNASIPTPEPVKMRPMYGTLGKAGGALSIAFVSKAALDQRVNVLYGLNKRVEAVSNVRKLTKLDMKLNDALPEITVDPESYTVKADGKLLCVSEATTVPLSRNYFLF
Description: In vitro anti-urease activity of synthesized compounds, 8a-n were performed based on the […] method against urease compared with thiourea as the reference inhibitor.
Urease inhibition effects of the synthesized compounds were determined according to the previously reported procedure[47]–[49]. 100 μL of the synthesized compounds at different concentrations was added to 850 μL of urea as substrate and 15 μL urease (0.135 units dissolved in PBS, pH 7.4). After 30 min, to 100 μL of the incubated solution, 500 μL solution I (5.0 g phenol and 25.0 mg sodium nitroprusside in 500 mL water) was added followed by the addition of 500 μL of solution II (2.5 g sodium hydroxide, 4.2 mL sodium hypochlorite, and 5% chlorine in 500 mL water) which was further incubated at 37 °C for 30 min. The absorbance was determined by measuring indophenols at 625 nm. Thiourea was used as the standard inhibitor for urease. The IC50 values for all synthesized compounds were calculated using GraphPad Prism software (GraphPad Software, Inc., San Diego, CA).

[2] = system: urease; settings: cited from earlier work
[3] = system: H. pylori; set-up: method as in PMID 10394014; settings: cited from earlier work
[4] = system: clinical isolate of P.vulgaris; test: Anti-ureolytic activity, colorimetric microdilution in urea broth; assay type: cell-based; settings: Proteus vulgaris; 560 nm, after 24 h; read-out: IC50 (µg/ml) of P. vulgaris (anti-ureolytic effect)
Description: (§1) The colorimetric microdilution technique using urea broth media (Merck, supplemented with glucose; pH = 6 for C. neoformans) was used to examine the urolytic activity of C. neoformans (H99), and clinical isolate of P.vulgaris treated with tested substances. Compounds in the concentration range of 1–512 μg/mL were exposed to ureolytic microorganisms, and the color of the medium was evaluated visually and spectroscopically at 560 nm after three days for C. neoformans and 24 h for P. vulgaris. The positive control, which included ureolytic bacteria but no drugs, changed color from yellow to dark pink or magenta. This shifts, allowing the determination of the inhibitory activity of compounds against urease activity of organisms even without a microtiter plate reader[57],[58].

[5] = system: C. neoformans (H99); test: as above; assay type: cell-based; settings: Cryptococcus neoformans, 72 h; 560 nm, after three days; read-out: IC50 (µg/ml) of C. neoformans (anti-ureolytic effect)
Description: as §1

[6] = system: Cryptococcus neoformans (H99); test: Antimicrobial activity, microbroth dilution (CLSI); assay type: cell-based; settings: tested 1 to 512 μg/ml
Description: (§2) The antimicrobial activity of compounds against the microorganisms including C. neoformans (H99), and clinical isolate of P.vulgaris was assessed using the microbroth dilution method, as recommended by the Clinical and Laboratory Standards Institute (CLSI) (M07-A9 for bacteria; M27-A3 for yeasts). The compounds were diluted, and stock solutions of 20 mg/ml in DMSO were prepared. Mueller–Hinton Broth (HiMedia) and RPMI-1640 (Sigma) were prepared as recommended for antimicrobial susceptibility testing of bacterial and fungal strains, respectively. Two-fold dilutions were made in the range of 1–512 μg/ml for tested compounds. The microbroth dilution test was accomplished using a 96-well microtiter plate, containing growth control (yeast culture in broth media) and sterility control (broth media without fungal culture). The antimicrobial susceptibility test was accomplished by adding a cell suspension adjusted to the 0.5 McFarland standard (1–2 × 10^8 CFU/mL for bacterial strains; 1−5 × 10^6 cells/ml for yeast) to different concentrations of tested compounds. […] All experiments were performed in duplicates.

[7] = system: clinical isolate of Proteus vulgaris; test: Antimicrobial activity, microbroth dilution (CLSI); assay type: cell-based; settings: tested 1 to 512 μg/ml
Description: as §2

[8] = target: T1, urease; test: Kinetic study of urease inhibition (Lineweaver–Burk); assay type: biochemical, jack bean
Description: The mechanism of urease inhibition was investigated by enzyme kinetics, following the similar procedure of the urease inhibition assay. Lineweaver–Burk graphics were used to estimate the type of inhibition.
The kinetic study for the inhibition of urease by compound 8h was carried out using four different concentrations of inhibitor. For the kinetic study of urease, compound 8h was used at the concentrations of 0, 1, 2, and 4 μM. The Lineweaver–Burk reciprocal plot was constructed by plotting 1/V against 1/[S] at variable concentrations of the substrate urea (3.12–100 mM). The inhibition constant Ki was calculated by the plot of slopes versus the corresponding concentrations of the compound 8h.

**Q.** For O=C(CSc1nc2ccccc2c(=O)n1-c1ccc(Cl)cc1)Nc1ncc([N+](=O)[O-])s1 [Compound 8b, 2-((3-(4-chlorophenyl)-4-oxo-3,4-dihydroquinazolin-2-yl)thio)-N-(5-nitrothiazol-2-yl)acetamide], which IC50 [1] is on record?
**A.** 2.34 ± 0.19 µM

**Q.** With O=C(Cn1c(Cc2ccc(Cl)cc2)nc2ccccc2c1=O)N/N=C/c1ccco1 [A] as the compound, how does the “IC50 (urease)” value ([2]; 2,3-disubstituted quinazolin-4(3H)-ones, Fig. 1A) read?
**A.** 1.55 ± 0.11 µg/mL (≈ 3.68 µM)

**Q.** With Cc1cnc(NC(=O)CSc2nnc(-c3cccc([N+](=O)[O-])c3)o2)s1 [F] as the compound, how does the IC50 ([2]; thiazolbenzamide, Fig. 1F) read?
**A.** 2.17 ± 0.41 µM

**Q.** For CC(C)Cn1c(SCC(=O)Nc2ncc([N+](=O)[O-])s2)nc2ccccc2c1=O [Compound 8l, 2-((3-isobutyl-4-oxo-3,4-dihydroquinazolin-2-yl)thio)-N-(5-nitrothiazol-2-yl)acetamide], which IC50 [1] is on record?
**A.** 8.43 ± 0.61 µM

**Q.** What does the source list for CC(=O)Oc1ccccc1C(=O)Nc1ncc([N+](=O)[O-])s1 [Nitazoxanide]?
**A.** MIC50 against H. pylori [3]: 4 µg/mL (≈ 13 µM); MIC90 against H. pylori [3]: 8 µg/mL (≈ 26 µM)

**Q.** Which IC50 [1] does the source give for CC(C)n1c(SCC(=O)Nc2ncc([N+](=O)[O-])s2)nc2ccccc2c1=O [Compound 8j, 2-((3-isopropyl-4-oxo-3,4-dihydroquinazolin-2-yl)thio)-N-(5-nitrothiazol-2-yl)acetamide] here?
**A.** 6.04 ± 0.57 µM

**Q.** With COc1ccc(-n2c(SCC(=O)Nc3ncc([N+](=O)[O-])s3)nc3ccccc3c2=O)cc1 [Compound 8d, 2-((3-(4-methoxyphenyl)-4-oxo-3,4-dihydroquinazolin-2-yl)thio)-N-(5-nitrothiazol-2-yl)acetamide] as the compound, how does the IC50 [1] read?
**A.** 2.78 ± 0.32 µM

**Q.** Which “IC50 (urease)” value ([2]; quinazolin-4(3H)-ones, Fig. 1C) does the source give for CCNc1nnc(Cn2c(Cc3ccc(F)cc3)nc3ccccc3c2=O)s1 [C] here?
**A.** 1.88 ± 0.17 µg/mL (≈ 4.75 µM)

**Q.** Which results are given for NC(N)=S [Thiourea, reference compound]?
**A.** IC50 (urease) ([2]; quinazolin-4(3H)-ones, Fig. 1C): 15.06 µg/mL (≈ 198 µM); IC50 ([1]; mean ± standard error of three independent experiments, read-out: IC50 (urease inhibitory activity)): 22.5 ± 0.44 µM

**Q.** With O=C(Nc1ncc([N+](=O)[O-])s1)c1ccccc1O [Tizoxanide] as the compound, how does the “MIC50 against H. pylori” value [3] read?
**A.** 4 µg/mL (≈ 15.1 µM)

**Q.** And the “MIC90 against H. pylori” value [3]?
**A.** 8 µg/mL (≈ 30.2 µM)

**Q.** Which IC50 [4] does the source give for O=C(CSc1nc2ccccc2c(=O)n1CCc1ccccc1)Nc1ncc([N+](=O)[O-])s1 [Compound 8h, N-(5-nitrothiazol-2-yl)-2-((4-oxo-3-phenethyl-3,4-dihydroquinazolin-2-yl)thio)acetamide] here?
**A.** 172 ± 8.7 µg/mL (≈ 369 µM)

**Q.** What about the IC50 [5] of the same compound?
**A.** 129 ± 5.3 µg/mL (≈ 277 µM)

**Q.** What about the MIC [6] of the same compound?
**A.** > 512 µg/mL

**Q.** What about the MIC [7] of the same compound?
**A.** > 512 µg/mL

**Q.** And the IC50 [1]?
**A.** 2.22 ± 0.44 µM

**Q.** And the “improvement in potency compared to thiourea” value [1]?
**A.** ten-fold

**Q.** What about the Ki [8] of the same compound?
**A.** 1.99 µM

**Q.** What about the “inhibition pattern against urease” value ([8]; Lineweaver–Burk plot) of the same compound?
**A.** uncompetitive

**Q.** With C=CCn1c(SCC(=O)Nc2ncc([N+](=O)[O-])s2)nc2ccccc2c1=O [Compound 8m, 2-((3-allyl-4-oxo-3,4-dihydroquinazolin-2-yl)thio)-N-(5-nitrothiazol-2-yl)acetamide] as the compound, how does the IC50 [1] read?
**A.** 5.46 ± 0.38 µM

**Q.** For O=C(CSc1nc2ccccc2c(=O)n1Cc1ccccc1)Nc1ncc([N+](=O)[O-])s1 [Compound 8e, 2-((3-benzyl-4-oxo-3,4-dihydroquinazolin-2-yl)thio)-N-(5-nitrothiazol-2-yl)acetamide], which IC50 [1] is on record?
**A.** 3.83 ± 0.17 µM

**Q.** For O=C(CSc1nc2ccccc2c(=O)n1-c1ccccc1)Nc1ncc([N+](=O)[O-])s1 [Compound 8a, N-(5-nitrothiazol-2-yl)-2-((4-oxo-3-phenyl-3,4-dihydroquinazolin-2-yl)thio)acetamide], which IC50 [1] is on record?
**A.** 4.72 ± 0.26 µM

**Q.** What about the “improvement in potency compared to thiourea” value [1] of the same compound?
**A.** around fivefold

**Q.** With O=C(CSc1nc2ccccc2c(=O)n1C1CCCC1)Nc1ncc([N+](=O)[O-])s1 [Compound 8n, 2-((3-cyclopentyl-4-oxo-3,4-dihydroquinazolin-2-yl)thio)-N-(5-nitrothiazol-2-yl)acetamide] as the compound, how does the IC50 [1] read?
**A.** 2.96 ± 0.45 µM

**Q.** With Cc1ccc(Cn2c(SCC(=O)Nc3ncc([N+](=O)[O-])s3)nc3ccccc3c2=O)cc1 [Compound 8f, 2-((3-(4-methylbenzyl)-4-oxo-3,4-dihydroquinazolin-2-yl)thio)-N-(5-nitrothiazol-2-yl)acetamide] as the compound, how does the IC50 [1] read?
**A.** 3.5 ± 0.28 µM

**Q.** With O=C(CSc1nc2ccccc2c(=O)n1Cc1cccnc1)Nc1ncc([N+](=O)[O-])s1 [Compound 8g, N-(5-nitrothiazol-2-yl)-2-((4-oxo-3-(pyridin-3-ylmethyl)-3,4-dihydroquinazolin-2-yl)thio)acetamide] as the compound, how does the IC50 [4] read?
**A.** > 512 µg/mL

**Q.** And the MIC [6]?
**A.** > 512 µg/mL

**Q.** And the MIC [7]?
**A.** > 512 µg/mL

**Q.** And the IC50 [1]?
**A.** 2.5 ± 0.37 µM

**Q.** Which IC50 [1] does the source give for CCCCn1c(SCC(=O)Nc2ncc([N+](=O)[O-])s2)nc2ccccc2c1=O [Compound 8k, 2-((3-butyl-4-oxo-3,4-dihydroquinazolin-2-yl)thio)-N-(5-nitrothiazol-2-yl)acetamide] here?
**A.** 3.02 ± 0.12 µM

**Q.** Which IC50 [4] does the source give for O=C(CSc1nc2ccccc2c(=O)n1-c1ccc(Br)cc1)Nc1ncc([N+](=O)[O-])s1 [Compound 8c, 2-((3-(4-bromophenyl)-4-oxo-3,4-dihydroquinazolin-2-yl)thio)-N-(5-nitrothiazol-2-yl)acetamide] here?
**A.** 383 ± 5.1 µg/mL (≈ 739 µM)

**Q.** And the IC50 [5]?
**A.** 174 ± 4.9 µg/mL (≈ 335 µM)

**Q.** What about the MIC [6] of the same compound?
**A.** > 512 µg/mL

**Q.** What about the MIC [7] of the same compound?
**A.** > 512 µg/mL

**Q.** And the IC50 [1]?
**A.** 2.22 ± 0.09 µM

**Q.** For CCCn1c(SCC(=O)Nc2ncc([N+](=O)[O-])s2)nc2ccccc2c1=O [Compound 8i, N-(5-nitrothiazol-2-yl)-2-((4-oxo-3-propyl-3,4-dihydroquinazolin-2-yl)thio)acetamide], which IC50 [1] is on record?
**A.** 4.26 ± 0.46 µM

**Q.** For CCc1nc2ccccc2c(=O)n1CC(=O)NNC(=O)c1cc2cc(Br)ccc2oc1=O [B], which “IC50 (urease)” value ([2]; quinazolinone-coumarin derivatives, Fig. 1B) is on record?
**A.** 1.26 ± 0.07 µg/mL (≈ 2.53 µM)
